In US10988462B2, “Pyrazole compounds substituted with heteroaryl and pharmaceutical use thereof” (Japan Tobacco Inc., priority 2018, dated 2021):

Columns and labels:
Escherichia coli WP2uvrA = test: Ames test (reverse mutation test), pre-incubation method, strain WP2uvrA; type: cell-based
Source text: (§1) Ames Test (Reverse Mutation Test)
Two plates per treatment were used.

[1] = test system: Salmonella typhimurium TA98; test: Ames test (reverse mutation test), pre-incubation method, strain TA98; settings: for Number of revertant colonies TA98: dose 62 μg/plate
Experimental: as §1
(§2) Metabolites 1 to 3 and Metabolites A to E were each tested herein. The purpose of this test is to evaluate the potential of each metabolite to induce reverse mutations in the standard strains of Salmonella typhimurium (TA98, TA1537, TA100, and TA1535) and Escherichia coli (WP2uvrA), in either the presence or absence of a rat liver metabolic activation system (S9 mix).
(§3) The solvent used herein was dimethyl sulfoxide (DMSO, 100 μL/plate).
(§4) The test was performed by the pre-incubation method with or without S9 mix. When the test was performed without S9 mix, sodium phosphate buffer solution (pH 7.4) was added.
(§5) 0.5 mL of S9 mix or 0.5 mL of 0.1 mol/L sodium phosphate buffer solution (pH 7.4), and 0.1 mL of the bacterial culture solution were added to a test tube containing 0.1 mL of the negative control formulation (DMSO alone), the metabolite, or the positive control formulation. The mixtures were pre-incubated at 37° C. for 20 minutes while shaking. After the pre-incubation period, 2 mL of top agar were added and the mixtures were vortex-mixed and seeded onto plates. Two plates per treatment were used. Each plate was incubated at 37±1° C. for 48 hours or more and the revertant colonies were counted. The mean number of revertant colonies for each treatment plate was then calculated. The presence or absence of growth inhibition due to any antibacterial effect of the test article and precipitation of the test article was observed grossly or under a stereomicroscope. […] Evaluation was based on mean values with no statistical comparisons being used.

[2] = test system: Salmonella typhimurium TA1537; test: Ames test (reverse mutation test), pre-incubation method, strain TA1537; type: cell-based
Experimental: as §1, §2, §3, §4, §5

[3] = test system: Salmonella typhimurium TA100; test: Ames test (reverse mutation test), pre-incubation method, strain TA100; type: cell-based
Experimental: as §1, §2, §3, §4, §5

## Nc1cc(-c2cc(F)cc(OC(F)(F)F)c2)n(-c2cncc(C(F)(F)F)c2)n1 [Metabolite 3]
Escherichia coli WP2uvrA; S9 mix +, dose 6.9 μg/plate
  Number of revertant colonies WP2uvrA: 22
Escherichia coli WP2uvrA; S9 mix +, dose 21 μg/plate
  Number of revertant colonies WP2uvrA: 22
Escherichia coli WP2uvrA; S9 mix +, dose 62 μg/plate
  Number of revertant colonies WP2uvrA: 21
Escherichia coli WP2uvrA; S9 mix +, dose 185 μg/plate
  Number of revertant colonies WP2uvrA: 21
Escherichia coli WP2uvrA; S9 mix +, dose 556 μg/plate
  Number of revertant colonies WP2uvrA: 18
Escherichia coli WP2uvrA; S9 mix +, dose 1667 μg/plate
  Number of revertant colonies WP2uvrA: 21
Escherichia coli WP2uvrA; S9 mix +, dose 5000 μg/plate
  Number of revertant colonies WP2uvrA: 19
Escherichia coli WP2uvrA; S9 mix −, dose 6.9 μg/plate
  Number of revertant colonies WP2uvrA: 23
Escherichia coli WP2uvrA; S9 mix −, dose 21 μg/plate
  Number of revertant colonies WP2uvrA: 15
Escherichia coli WP2uvrA; S9 mix −, dose 62 μg/plate
  Number of revertant colonies WP2uvrA: 23
Escherichia coli WP2uvrA; S9 mix −, dose 185 μg/plate
  Number of revertant colonies WP2uvrA: 20
Escherichia coli WP2uvrA; S9 mix −, dose 556 μg/plate
  Number of revertant colonies WP2uvrA: 22
Escherichia coli WP2uvrA; S9 mix −, dose 1667 μg/plate
  Number of revertant colonies WP2uvrA: 19
Escherichia coli WP2uvrA; S9 mix −, dose 5000 μg/plate
  Number of revertant colonies WP2uvrA: 14
[1]; S9 mix +
  Number of revertant colonies TA98: 38
[1]; S9 mix −
  Number of revertant colonies TA98: 29
[2]; S9 mix +, dose 6.9 μg/plate
  Number of revertant colonies TA1537: 13
[2]; S9 mix +, dose 21 μg/plate
  Number of revertant colonies TA1537: 11
[2]; S9 mix +, dose 62 μg/plate
  Number of revertant colonies TA1537: 12
[2]; S9 mix +, dose 185 μg/plate
  Number of revertant colonies TA1537: 12
[2]; S9 mix +, dose 556 μg/plate
  Number of revertant colonies TA1537: 8
[2]; S9 mix +, dose 1667 μg/plate
  Number of revertant colonies TA1537: 3
[2]; S9 mix +, dose 5000 μg/plate
  Number of revertant colonies TA1537: 1
[2]; S9 mix −, dose 6.9 μg/plate
  Number of revertant colonies TA1537: 8
[2]; S9 mix −, dose 21 μg/plate
  Number of revertant colonies TA1537: 7
[2]; S9 mix −, dose 62 μg/plate
  Number of revertant colonies TA1537: 8
[2]; S9 mix −, dose 185 μg/plate
  Number of revertant colonies TA1537: 7
[2]; S9 mix −, dose 556 μg/plate
  Number of revertant colonies TA1537: 2
[2]; S9 mix −, dose 1667 μg/plate
  Number of revertant colonies TA1537: 3
[2]; S9 mix −, dose 5000 μg/plate
  Number of revertant colonies TA1537: 2
[3]; S9 mix +, dose 6.9 μg/plate
  Number of revertant colonies TA100: 134
[3]; S9 mix +, dose 21 μg/plate
  Number of revertant colonies TA100: 123
[3]; S9 mix +, dose 62 μg/plate
  Number of revertant colonies TA100: 108
[3]; S9 mix +, dose 185 μg/plate
  Number of revertant colonies TA100: 103
[3]; S9 mix +, dose 556 μg/plate
  Number of revertant colonies TA100: 99
[3]; S9 mix +, dose 1667 μg/plate
  Number of revertant colonies TA100: 67
[3]; S9 mix +, dose 5000 μg/plate
  Number of revertant colonies TA100: 43
[3]; S9 mix −, dose 6.9 μg/plate
  Number of revertant colonies TA100: 88
[3]; S9 mix −, dose 21 μg/plate
  Number of revertant colonies TA100: 91
[3]; S9 mix −, dose 62 μg/plate
  Number of revertant colonies TA100: 93
[3]; S9 mix −, dose 185 μg/plate
  Number of revertant colonies TA100: 92
[3]; S9 mix −, dose 556 μg/plate
  Number of revertant colonies TA100: 59
[3]; S9 mix −, dose 1667 μg/plate
  Number of revertant colonies TA100: 29
[3]; S9 mix −, dose 5000 μg/plate
  Number of revertant colonies TA100: 12

## CC(C)(OCc1cc(F)cc(-c2cc(N)nn2-c2ccc(F)cc2)c1)C(F)(F)F [Metabolite A, reference compound]
[1]; TA98, in the presence of S9 mix
  potential to induce reverse mutations: had potential to induce reverse mutations
[2]; TA1537, in the presence of S9 mix
  potential to induce reverse mutations: had potential to induce reverse mutations
